Test results published in the supplement of paper PMC11061612.

Tests used:
Experiment in all cases: Bliss excess, mean over the matrix (fraction); higher = more synergy
[1] = tested on: ESO26 (Esophageal Adenocarcinoma)
Procedure, shortened: (§1)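 Cell lines grown in DMEM/F12 or RPMI with 10% FBS were plated in 1536-well plates and held 24 hours at 37°C, 5% CO2 before 72 hours of exposure to two-drug dose matrices, with DMSO typically at 0.2%. CellTiter-Glo 2.0 luminescence gave viability, which was converted to inhibition. Vehicle wells were set to 0 and blank wells to 1. Combination Emax is the second-highest inhibition in the matrix, and Bliss excess is the observed combination effect minus the expected EA + EB − EA·EB, where EA and EB are the single-agent effects.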

[2] = tested on: HCC1428 (Breast Carcinoma)
Procedure, shortened: as §1

[3] = tested on: MHH-ES-1 (Ewing's Sarcoma)
Procedure, shortened: as §1

[4] = tested on: DU-4475 (Breast Carcinoma)
Procedure, shortened: as §1

[5] = tested on: DMS-53 (Small Cell Lung Carcinoma)
Procedure, shortened: as §1

[6] = tested on: A2780 (Ovarian Carcinoma)
Procedure, shortened: as §1

[7] = tested on: CGTH-W-1 (Thyroid Gland Carcinoma)
Procedure, shortened: as §1

[8] = tested on: OACp4C (Esophageal Adenocarcinoma)
Procedure, shortened: as §1

[9] = tested on: PEO1 (Ovarian Carcinoma)
Procedure, shortened: as §1

[10] = tested on: EB2 (Burkitt's Lymphoma)
Procedure, shortened: as §1

[11] = tested on: AU565 (Breast Carcinoma)
Procedure, shortened: as §1

[12] = tested on: CESS (Acute Myeloid Leukemia)
Procedure, shortened: as §1

[13] = tested on: A101D (Melanoma)
Procedure, shortened: as §1

[14] = tested on: WM1552C (Melanoma)
Procedure, shortened: as §1

[15] = tested on: NCI-H1651 (Lung Adenocarcinoma)
Procedure, shortened: as §1

[16] = tested on: CA46 (Burkitt's Lymphoma)
Procedure, shortened: as §1

[17] = tested on: EW-7 (Ewing's Sarcoma)
Procedure, shortened: as §1

[18] = tested on: MDA-MB-436 (Breast Carcinoma)
Procedure, shortened: as §1

[19] = tested on: CAL-27 (Oral Cavity Carcinoma)
Procedure, shortened: as §1

[20] = tested on: G-402 (Other Solid Carcinomas)
Procedure, shortened: as §1

| Compound | Bliss excess [1] | Bliss excess [2] | Bliss excess [3] | Bliss excess [4] | Bliss excess [5] | Bliss excess [6] | Bliss excess [7] | Bliss excess [8] | Bliss excess [9] | Bliss excess [10] | Bliss excess [11] | Bliss excess [12] | Bliss excess [13] | Bliss excess [14] | Bliss excess [15] | Bliss excess [16] | Bliss excess [17] | Bliss excess [18] | Bliss excess [19] | Bliss excess [20] |
| --- | --- | --- | --- | --- | --- | --- | --- | --- | --- | --- | --- | --- | --- | --- | --- | --- | --- | --- | --- | --- |
| NC1(C(=O)N[C@@H](CCO)c2ccc(Cl)cc2)CCN(c2ncnc3[nH]ccc23)CC1 [Capivasertib] + CC(C)n1c(=O)n(C)c2cnc3cc(F)c(-c4ccc(OCCCN5CCCCC5)nc4)cc3c21 [AZD1390] (first compound max 10 µM, 7x7, partner max 0.3 µM) | -0.053 | -0.0538 | -0.0515 | 0.0233 | 0.0083 | -0.0885 | -0.0273 | -0.0479 | -0.0601 | 0.0109 | -0.025 | -0.0835 | -0.118 | -0.0474 | -0.0404 | -0.049 | -0.0311 | -0.0625 | -0.0886 | -0.0731 |
| CN(C)CCCOc1ccc(-c2ccc3ncc4c(c3c2)n(C2CCOCC2)c(=O)n4C)cn1 [AZD0156] + O=C(c1cc(Cc2n[nH]c(=O)c3ccccc23)ccc1F)N1CCN(C(=O)C2CC2)CC1 [Olaparib] (first compound max 3 µM, partner max 3 µM) | -0.0039 | 0.0051 | 0.148 | 0.117 | -0.0283 | 0.198 | 0.0361 | -0.0005 | -0.0891 | 0.0892 | 0.0442 | 0.075 | 0.134 | 0.0213 | 0.132 | 0.0156 | 0.119 | -0.0232 | 0.0602 | 0.0571 |
| Cc1c2c(nn1C)CSCc1cc(n(C)n1)CSc1cc(c3ccccc3c1)OCCCc1c(C(=O)O)n(C)c3c-2c(Cl)ccc13 [AZD5991] + Cc1cc2ncnn2cc1Nc1ncc2c(n1)n(C1CCOCC1)c(=O)n2C [AZD7648] (first compound max 1 µM, 7x7, partner max 10 µM) | -0.0372 | 0.0018 | -0.0323 | 0.0811 | 0.0011 | -0.0224 | -0.0214 | 0.008 | -0.0279 | 0.0285 | -0.0172 | 0.0437 | -0.0897 | -0.0762 | 0.0096 | 0.0187 | -0.0105 | -0.042 | -0.057 | 0.0229 |
| COc1cccc(OCCCN)c1-c1cc(Nc2cnc(C#N)cn2)n[nH]1 [Prexasertib] + O=C(c1cc(Cc2n[nH]c(=O)c3ccccc23)ccc1F)N1CCN(C(=O)C2CC2)CC1 [Olaparib] (first compound max 1 µM, 7x7, partner max 10 µM) | -0.0191 | 0.0501 | 0.0048 | -0.0174 | -0.0473 | -0.0298 | -0.0511 | -0.0222 | -0.0183 | -0.0373 | -0.0097 | -0.0511 | -0.0549 | -0.134 | -0.0471 | -0.192 | -0.0465 | 0.0035 | -0.0113 | -0.0572 |
| CCc1c2c(nc3ccc(O)cc13)-c1cc3c(c(=O)n1C2)COC(=O)[C@]3(O)CC [SN-38] + O=C(c1cc(Cc2n[nH]c(=O)c3ccccc23)ccc1F)N1CCN(C(=O)C2CC2)CC1 [Olaparib] (first compound max 0.3 µM, 7x7, partner max 10 µM) | 0.0237 | – | 0.0533 | -0.0271 | 0.0457 | 0.0545 | 0.0526 | 0.0413 | 0.0523 | 0.0348 | 0.0698 | 0.0785 | 0.114 | 0.0586 | 0.0252 | – | 0.0538 | 0.0627 | – | 0.0614 |
| NC1(C(=O)N[C@@H](CCO)c2ccc(Cl)cc2)CCN(c2ncnc3[nH]ccc23)CC1 [Capivasertib] + Cn1cnc2c(F)c(Nc3ccc(Br)cc3Cl)c(C(=O)NOCCO)cc21 [Selumetinib] (first compound max 10 µM, 7x7, partner max 10 µM) | 0.0818 | 0.0149 | 0.0114 | 0.0066 | 0.0155 | 0.0151 | 0.0262 | -0.0318 | -0.0358 | -0.0049 | 0.0183 | -0.0147 | 0.0628 | 0.036 | -0.0156 | 0.0039 | 0.0429 | 0.0258 | 0.0108 | 0.0126 |
| CC1(C)CCC(CN2CCN(c3ccc(C(=O)NS(=O)(=O)c4ccc(NCC5CCOCC5)c([N+](=O)[O-])c4)c(Oc4cnc5[nH]ccc5c4)c3)CC2)=C(c2ccc(Cl)cc2)C1 [Venetoclax] + Cc1cc2ncnn2cc1Nc1ncc2c(n1)n(C1CCOCC1)c(=O)n2C [AZD7648] (first compound max 1 µM, 7x7, partner max 10 µM) | -0.0336 | -0.006 | -0.0189 | 0.0152 | 0.11 | -0.03 | -0.0771 | -0.0027 | -0.033 | -0.0338 | 0.0266 | -0.0288 | -0.0394 | -0.0571 | -0.0342 | -0.0454 | -0.0345 | -0.04 | 0.0079 | -0.0359 |
| CN(CCO)CC[C@H](CSc1ccccc1)Nc1ccc(S(=O)(=O)NC(=O)c2ccc(N3CCC([C@@H](O)c4ccccc4-c4ccc(Cl)cc4)CC3)cc2)cc1S(=O)(=O)C(F)(F)F [AZD4320] + CN(C)CCCOc1ccc(-c2ccc3ncc4c(c3c2)n(C2CCOCC2)c(=O)n4C)cn1 [AZD0156] (first compound max 1 µM, 7x7, partner max 1 µM) | -0.025 | 0.0307 | -0.0062 | -0.0498 | 0.0316 | -0.0519 | -0.0346 | -0.0257 | -0.0753 | -0.0028 | 0.0203 | -0.0814 | -0.0298 | -0.0282 | -0.026 | 0.0092 | 0.0524 | -0.0496 | -0.0136 | -0.0458 |
| CCN(CCO)CCCOc1ccc2c(Nc3cc(CC(=O)Nc4cccc(F)c4)[nH]n3)ncnc2c1 [AZD2811] + O=C(c1cc(Cc2n[nH]c(=O)c3ccccc23)ccc1F)N1CCN(C(=O)C2CC2)CC1 [Olaparib] (first compound max 1 µM, 7x7, partner max 10 µM) | -0.0311 | -0.0081 | -0.0214 | 0.0213 | -0.014 | 0.0453 | 0.008 | -0.0304 | -0.0019 | 0.0141 | -0.011 | 0.0591 | -0.0005 | -0.027 | 0.0136 | 0.02 | 0.0067 | -0.0533 | 0.0484 | -0.0281 |
| CS(=O)(=O)CCNCc1ccc(-c2ccc3ncnc(Nc4ccc(OCc5cccc(F)c5)c(Cl)c4)c3c2)o1 [Lapatinib] + C[C@@H](Oc1cc(-c2cnn(C3CCNCC3)c2)cnc1N)c1c(Cl)ccc(F)c1Cl [Crizotinib] (first compound max 10 µM, 7x7, partner max 10 µM) | -0.0293 | -0.043 | -0.0333 | -0.0077 | -0.0205 | -0.0277 | -0.0294 | -0.0355 | -0.0422 | -0.0705 | -0.0287 | -0.0826 | -0.0587 | -0.0534 | -0.0331 | 0.0216 | -0.0465 | -0.0237 | -0.0589 | -0.0517 |
| CCc1c2c(nc3ccc(O)cc13)-c1cc3c(c(=O)n1C2)COC(=O)[C@]3(O)CC [SN-38] + CN(C)CCCOc1ccc(-c2ccc3ncc4c(c3c2)n(C2CCOCC2)c(=O)n4C)cn1 [AZD0156] (first compound max 0.3 µM, 7x7, partner max 1 µM) | -0.0042 | -0.0584 | 0.0449 | 0.0129 | -0.0288 | -0.0099 | -0.0056 | 0.0666 | -0.0037 | 0.0238 | -0.0621 | 0.0031 | 0.0006 | 0.0013 | -0.021 | 0.0951 | 0.0647 | 0.0033 | 0.0255 | 0.003 |
| C[C@@H]1COCCN1c1cc(C2([S@](C)(=N)=O)CC2)nc(-c2ccnc3[nH]ccc23)n1 [AZD6738] + O=C(c1cc(Cc2n[nH]c(=O)c3ccccc23)ccc1F)N1CCN(C(=O)C2CC2)CC1 [Olaparib] (first compound max 10 µM, 7x7, partner max 10 µM) | -0.0081 | -0.003 | 0.0366 | 0.0762 | -0.002 | 0.006 | 0.0176 | -0.0281 | 0.0069 | -0.0553 | 0.005 | 0.0222 | -0.0004 | 0.0105 | 0.0418 | 0.0138 | -0.0896 | -0.0176 | 0.12 | 0.0068 |
| Cc1c2c(nn1C)CSCc1cc(n(C)n1)CSc1cc(c3ccccc3c1)OCCCc1c(C(=O)O)n(C)c3c-2c(Cl)ccc13 [AZD5991] + C[C@@H](Nc1cc(F)cc(F)c1)c1cc(C(=O)N(C)C)cc2c(=O)cc(N3CCOCC3)oc12 [AZD8186] (first compound max 1 µM, 7x7, partner max 3 µM) | -0.0171 | -0.009 | -0.0142 | -0.0249 | 0.0267 | -0.0049 | -0.0348 | 0.0153 | -0.008 | 0.0282 | 0.0418 | -0.0325 | -0.0318 | 0.0005 | -0.0293 | -0.0611 | -0.0178 | -0.0139 | 0.0034 | – |
| Cc1c2c(nn1C)CSCc1cc(n(C)n1)CSc1cc(c3ccccc3c1)OCCCc1c(C(=O)O)n(C)c3c-2c(Cl)ccc13 [AZD5991] + CCN(CCO)CCCOc1ccc2c(Nc3cc(CC(=O)Nc4cccc(F)c4)[nH]n3)ncnc2c1 [AZD2811] (first compound max 1 µM, 7x7, partner max 1 µM) | – | 0.0469 | 0.0173 | 0.075 | 0.0525 | 0.0561 | 0.0439 | 0.0088 | 0.0502 | 0.0391 | 0.0367 | 0.192 | -0.0169 | -0.0095 | -0.0386 | 0.0251 | 0.198 | -0.0406 | 0.0403 | 0.0271 |
| Cc1c2c(nn1C)CSCc1cc(n(C)n1)CSc1cc(c3ccccc3c1)OCCCc1c(C(=O)O)n(C)c3c-2c(Cl)ccc13 [AZD5991] + Cn1cnc2c(F)c(Nc3ccc(Br)cc3Cl)c(C(=O)NOCCO)cc21 [Selumetinib] (first compound max 1 µM, 7x7, partner max 3 µM) | 0.0199 | -0.0185 | -0.0127 | -0.0018 | 0.0572 | -0.0361 | -0.0152 | 0.143 | 0.0027 | -0.0046 | 0.0145 | – | 0.0482 | -0.089 | -0.0165 | -0.0195 | 0.0096 | -0.0127 | 0.0086 | -0.0416 |
